Source: article PMC11239005, “Preclinical studies of RA475, a guanidine-substituted spirocyclic candidate RPN13/ADRM1 inhibitor for treatment of ovarian cancer” (PLOS ONE, 2024)
Values joined by “and” are separate entries in the source; they are usually repeats but may differ in a detail not shown here. Equal entries are not always repeated.

Tests used:
ES2 = assay: MTT cytotoxicity assay, ES2; format: cell-based; conditions: Homo sapiens, ES-2, ES2, 72 h
Experimental: (§1) All cell lines were obtained from the American Type Culture Collection (ATCC) and cultured in the specified medium supplemented with 10% fetal bovine serum, 100 IU/mL penicillin, and 100 μg/mL streptomycin at 37°C in a humidified 5% CO2/95% air incubator. Synthesis of new compounds is described in S1 File, and >95% purity of RA475, Up284 and its analogs were confirmed by NMR and MS. To assess drug cytotoxicity, cells were seeded at 2,500 cells/well (10,000 cells/well for MM lines) in 100 μL medium in 96-well plate as triplicates and after 24 h treated with compounds for a further 72 h. To assess cytotoxicity, the cells were incubated for 2 h at 37°C according to the manufacturer’s protocol with the Thiazolyl Blue Tetrazolium Bromide (20 μL/well of 5 mg/mL stock solution in water) (Sigma, M5655) and A570 measured using a Benchmark Plus microplate spectrophotometer (BIO-RAD). IC50 was estimated using Graphpad Prism 7 software.

HFF = assay: MTT cytotoxicity assay, HFF; format: cell-based; conditions: Homo sapiens, HFF (normal cells), 72 h
Experimental: as §1

4UbFL in ES2 cells = assay: 4UbFL reporter assay, ES2; format: cell-based, human; conditions: 4 h; for 4UbFL stabilization, fold over DMSO: ES2, 1.25 μM; for 4UbFL bioluminescence, luminometer: ES2 stably expressing 4UbFL
Experimental: Sub-confluent cultures of cells were transfected with 4UbFL plasmid using TransIT 2020 reagent (Mirus Bio). Cells were seeded at 10,000 cells/well in 96-well plates 48 h post transfection, and incubated with compounds or vehicle (DMSO) at the doses and for the times indicated. Luciferase activity in cell lysate was determined with a luciferase assay kit (Promega) according to the manufacturer’s instructions. Bioluminescence was measured using a Glomax Multidetection system (Promega).
Fig 3 Impact of RA475 on proteasome function. […] Actin was used as loading control. […] C) 4T1 and HCC1806 cells stably expressing 4UbFL were treated with compounds at indicated doses for 4 h and imaged by IVIS200 after the addition of luciferin substrate (50 μL, 7mg/mL in PBS). D) Sub-confluent cultures of ES2 cells stably expressing 4UbFL were seeded at 10,000 cells/well in 96-well microtiter plates. At 18 h post transfection, cells were treated with compounds or vehicle (DMSO) at the doses indicated. After a 4 h incubation, the cells were lysed and the luciferase activity in each cell lysate was determined with a luciferase assay kit (Promega) according to the manufacturer’s instructions. Bioluminescence was measured by using a luminometer (Glomax Multidetection system, Promega) E) A patch was shaved of hair on one leg of CD-1 mice, and 10 μg 4UbFL plasmid in 20 μL of PBS was injected into the quadriceps femoralis muscle followed immediately by injection of the 2 Needle Array to 5 mm depth encompassing the injection site and square wave electroporation (ElectroSquarePorator 833, BTX-2 Needle array 5mm gap, Harvard apparatus) delivered as eight pulses at 106V for 20 ms with 200 ms intervals. One day post electroporation, mice were anesthetized with isoflurane, injected IP with luciferin (0.3 mg in 100 μL water) and optical imaging was performed to determine basal level luciferase expression. Images were acquired for 10 min with a Xenogen IVIS 200 (Caliper, Hopkinton, MA). Equally sized areas were analyzed using Living Image 2.20 software. Mice were imaged weekly during treatment. Mice were randomized into three groups (n = 5) and treated IP once with Vehicle (25% (w/v) β-Hydroxypropylcyclodextrin in water, Sigma Aldrich) alone, RA475 (40 mg/Kg) or Up284 (40 mg/Kg) and mice were imaged again at 4 h, 24 h, 48 h, 72 h and 96 h later. F) Same as in E but RA475 (40mg/Kg) and ixazomib (10mg/Kg, recommended dose) were delivered orally. Thick line indicates median measurements. P-values are results based on Wilcoxon rank sum test for pairwise comparisons to vehicle cohort at each time point with multiplicity adjustment.
Firefly Luciferase (FL) is a stable protein in cells, but when fused with four molecules of ubiquitin (4Ub) it is targeted for rapid degradation by proteasomes. […]

[1] = LogD measurement, shake-flask octanol/PBS pH 7.4; format: physicochemical; conditions: for D: octanol/PBS pH 7.4, single injections 1-3; for LogD, pH 7.4: single injections 1-3
Experimental: Incubations were carried out in Eppendorf-type polypropylene microtubes in triplicates. A 2.5 μL aliquot of 20 mM DMSO stock of a test compound was added into the previously mutually saturated mixture containing 500 μL of PBS (pH 7.4) and 500 μL of octanol. The solution was allowed to mix in a rotator for 1 hour at 30 rpm. Phase separation was assured by centrifugation for 2 min at 6000 rpm. The octanol phase was diluted 100-fold with 40% acetonitrile, and the aqueous phase (PBS buffer) was diluted 10-fold. The samples (both phases) were analyzed using an HPLC system coupled with a tandem mass spectrometer. […] Calculations of the partition ratios were carried out using the equation below. D=do.So/dp.Sp where:
So–peak area of the analyte in octanol phase
SP–peak area of the analyte in PBS buffer
do–dilution coefficient for octanol phase

4T1 = assay: MTT cytotoxicity assay, 4T1; format: cell-based; conditions: Mus musculus, 4T1, 72 h
Experimental: as §1

LaPC4 = assay: MTT cytotoxicity assay, LaPC4; format: cell-based; conditions: Homo sapiens, LaPC4, 72 h
Experimental: as §1

Mouse keratinocytes = assay: MTT cytotoxicity assay, mouse keratinocytes; format: cell-based; conditions: Keratinocyte, Mouse keratinocytes (normal cells), 72 h
Experimental: as §1

TSH1 = assay: MTT cytotoxicity assay, TSH1; format: cell-based; conditions: TSH1, 72 h
Experimental: as §1

HT29 = assay: MTT cytotoxicity assay, HT29; format: cell-based; conditions: Homo sapiens, HT-29, HT29, 72 h
Experimental: as §1

HCT116 = assay: MTT cytotoxicity assay, HCT116; format: cell-based; conditions: Homo sapiens, HCT-116, HCT116, 72 h
Experimental: as §1

Hep3B = assay: MTT cytotoxicity assay, Hep3B; format: cell-based; conditions: Homo sapiens, 72 h
Experimental: as §1

OVCAR3 cells = assay: MTT cytotoxicity assay, OVCAR3; format: cell-based, human; conditions: for IC50: Homo sapiens, OVCAR-3, OVCAR3, 72 h
Experimental: as §1
To study the effect of RA475 in combination with approved therapeutics (DNA damaging agents or radiation) an MTT assay was performed using various concentrations of both drugs. Briefly PEA1 and OVCAR3 cells were each treated with drug combination (RA475 plus cisplatin) for 72 h in a checker board analysis and cell viability was measured using MTT assay. The data were analyzed and plotted using the Synergy Finder web application.

HCC1806 = assay: MTT cytotoxicity assay, HCC1806; format: cell-based; conditions: Homo sapiens, HCC1806, 72 h
Experimental: as §1

| SMILES | IC50 (ES2) | IC50 (HFF) | 4UbFL stabilization, fold over DMSO (4UbFL in ES2 cells) | 4UbFL bioluminescence, luminometer (4UbFL in ES2 cells) | D [1] | logD ([1]; pH 7.4, mean of three injections) | logD ([1]; pH 7.4, single injections 1-3) | LogD, pH 7.4 [1] | IC50 (4T1) | IC50 (LaPC4) | IC50 (Mouse keratinocytes) | IC50 (TSH1) | IC50 (HT29) | IC50 (HCT116) | IC50 (Hep3B) | IC50 (OVCAR3 cells) | synergy with cisplatin for cytotoxicity (OVCAR3 cells; OVCAR3, checker board, 72 h, Synergy Finder) | IC50 (HCC1806) | logD ([1]; n-octanol/PBS, pH 7.4, mean of three injections) | logD ([1]; n-octanol/PBS, pH 7.4, single injections 1-3) |
| --- | --- | --- | --- | --- | --- | --- | --- | --- | --- | --- | --- | --- | --- | --- | --- | --- | --- | --- | --- | --- |
| Cl.Cl.N#Cc1ccc(/C=C2/C(=O)/C(=C/c3ccc(C#N)cc3)C23CCN(C(=N)N)CC3)cc1 [RA475, 1,3-bis((E)-4-cyanobenzylidene)-2-oxo-7-azaspiro[3.5]nonane-7-carboximidamide dihydrochloride] | 0.16 µM | > 2.5 µM | > 20 fold | dose-dependent increase in bioluminescence | 3.84E+01 and 4.27E+01 and 3.16E+01 | 1.58 | 1.58 | 1.631 and 1.5 | 0.261 µM | 2.03 µM | > 2.5 µM | 0.114 µM | 0.401 µM | 0.43 µM | 0.997 µM | 0.19 µM | mild synergy | 0.113 µM | – | – |
| N#Cc1ccc(/C=C2/C(=O)/C(=C/c3ccc(C#N)cc3)C23CCNCC3)cc1 [Up284, reference compound] | 0.125 µM | > 2.5 µM | > 20 fold | dose-dependent increase in bioluminescence | 1.15E+02 and 1.32E+02 and 1.44E+02 | – | – | 2.158 | 0.12 µM | 0.51 µM | > 2.5 µM | 0.07 µM | 0.043 µM | 0.11 µM | 0.16 µM | 0.05 µM | – | 0.14 µM | 2.12 | 2.06 |
